US11034695B2, “Dopamine-β-hydroxylase inhibitors” (BIAL—PORTELA & Ca, S.A., priority 2016, dated 2021)

These molecules were tested against T1, Dopamine beta hydroxylase activity in human plasma (Homo sapiens, UniProt P09172) (assay: DβH activity in human plasma). Details: 0.1 μM inhibitor; human plasma; numbers in brackets; read-out: DβH activity in % of Ctrl (0.1 μM), human plasma assay.
T1 construct: 125 μl of plasma (or saline for blank reaction or standard curve); tissue Instituto Português do Sangue Transplantação; host or cells: human plasma from healthy donors
T1 sequence (P09172 40-617 limits assumed): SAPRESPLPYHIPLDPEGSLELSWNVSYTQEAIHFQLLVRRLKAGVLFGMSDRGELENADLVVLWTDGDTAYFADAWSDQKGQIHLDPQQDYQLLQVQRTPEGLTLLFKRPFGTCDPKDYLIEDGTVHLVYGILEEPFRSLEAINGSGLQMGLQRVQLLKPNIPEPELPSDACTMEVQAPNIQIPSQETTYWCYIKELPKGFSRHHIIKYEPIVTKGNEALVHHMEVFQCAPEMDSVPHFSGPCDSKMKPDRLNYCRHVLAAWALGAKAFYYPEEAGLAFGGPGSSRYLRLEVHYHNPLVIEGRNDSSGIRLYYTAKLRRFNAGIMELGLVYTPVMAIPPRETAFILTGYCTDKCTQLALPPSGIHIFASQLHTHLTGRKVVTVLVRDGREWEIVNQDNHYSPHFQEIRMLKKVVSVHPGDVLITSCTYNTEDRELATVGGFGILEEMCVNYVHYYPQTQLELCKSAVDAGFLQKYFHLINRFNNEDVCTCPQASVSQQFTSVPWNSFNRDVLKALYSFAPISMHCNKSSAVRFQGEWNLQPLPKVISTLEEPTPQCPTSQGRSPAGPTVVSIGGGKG
Assay type: biochemical
Method: Furthermore, the ability of a compound to inhibit DβH activity may be assessed in human plasma using the following assay. […]. Dopamine beta hydroxylase activity in human plasma was measured by the method previously developed (Nagatsu, T. and Udenfriend, S. Photometric assay of dopamine-β-hydroxylase activity in human blood. Clin. Chem. 18(9) 980-983, 1972) with minor modifications. Catalase, N-ethylmaleimide, tyramine, disodium fumarate, pargyline, sodium acetate, ascorbic acid, copper sulfate and octopamine were obtained from Sigma Chemical Co., St. Louis, Mo. 63178. Human plasma samples were obtained from healthy donors (Instituto Português do Sangue Transplantação, Centro Sangue Transplantação, Porto, Portugal). From date of collection, plasma was stored at −80° C. until use. Test compounds were initially prepared in dimethyl sulfoxide at a concentration of 10 mM and diluted in dimethyl sulfoxide to the required concentrations. Test compounds were further diluted in ultrapure water to a concentration 20-fold to that of the final concentration to be tested. Final concentrations of test compounds were 10, 100 and 1000 nM. The various reagents used to make up the incubation buffer were premixed and consisted of the following components: sodium acetate buffer (1 M, pH 5.0, 18 ml), sodium fumarate (0.2 M, 4.5 ml), ascorbic acid (0.2 M, 4.5 ml, freshly prepared), pargyline (20 mM, freshly prepared, 4.5 ml), N-ethylmaleimide (0.2 M, 4.5 ml), catalase (10 000 U/ml, 9 ml), copper sulfate (20 μM, 4.5 ml) and 4.5 ultrapure water. The standard incubation mixture (total volume, 950 μl) contained: 50 μL of compound or vehicle (dimethyl sulfoxide 2%); 700 μL of incubation buffer; 125 μl of plasma (or saline for blank reaction or standard curve); 75 μl of saline. The reaction mixture was placed in water bath, shaking at 37° C. and pre-incubated for 10 minutes. Tyramine (0.5 M) was added and incubation proceeded for 45 minutes. The reaction contents were exposed to air. A sample of enzyme preparation (with 125 μl of plasma) that had been added perchloric acid 2 M at the end of the pre-incubation period was used as blank. A blank for each of the tested compounds was used. For octopamine standard curve, perchloric acid 2 M was replaced by increasing concentrations of octopamine prepared in perchloric acid 2 M (0.5, 1, 2.5, 5, 7.5, 10, 15, 20 μg/ml, final concentration). The incubation was stopped by adding 200 μl of 2 M molar perchloric acid, and the mixture was centrifuged at 9000 g for 5 min. The supernatant fluid (800 μL) was transferred to a column (SPE cartridge ISOLUTE SCX-3, 100 mg) and centrifuged at 150 g for 2 min. The column was washed two more times with 0.5 ml of ultrapure water by centrifuging at 150 g for 2 min. The adsorbed octopamine was eluted twice with 0.3 ml of 4 M ammonium hydroxide by centrifuging at 150 g for 2 min. Octopamine in the eluate was then converted to p-hydroxybenzaldehyde by adding 200 μl of sodium periodate (2%) and incubating for 6 min. Excess periodate was than reduced by adding 200 μl of sodium metabisulfite (10%). Absorbance was measured at […] in a 96-well plate by use of a SpectraMAX plus 384 (Molecular Devices) with software SOFTmax® PRO Software 5.3 spectrophotometer. Absorbance was linear with octopamine concentration from 0.5 to 20 μg/ml. Dopamine beta hydroxylase activity is determined as nmol of octopamine formed/ml of plasma/hour and effect of compounds is presented as % control.
Results are reported in the table below (inside brackets) as activity in % of control at the inhibitor concentration tested.

remaining activity at 0.1 µM [%] | SMILES
39.1 | Cc1[nH]c(=S)n2c1C[C@@H](c1cc(Br)ccc1F)C2 [Example 19, (S)-6-(5-bromo-2-fluorophenyl)-1-methyl-2,5,6,7-tetrahydro-3H-pyrrolo[1,2-c]imidazole-3-thione]
27.7 | Cc1[nH]c(=S)n2c1C[C@H](c1c(F)ccc(F)c1F)C2 [Example 20, (R)-1-methyl-6-(2,3,6-trifluorophenyl)-6,7-dihydro-2H-pyrrolo[1,2-c]imidazole-3(5H)-thione]
88.8 | Cc1[nH]c(=S)n2c1C[C@H](c1cc(Br)ccc1F)C2 [Example 21, (R)-6-(5-bromo-2-fluorophenyl)-1-methyl-2,5,6,7-tetrahydro-3H-pyrrolo[1,2-c]imidazole-3-thione]
0.5 | Cc1[nH]c(=S)n2c1C[C@H](c1c(F)cccc1F)C2 [Example 22, (R)-6-(2,6-difluorophenyl)-1-methyl-2,5,6,7-tetrahydro-3H-pyrrolo[1,2-c]imidazole-3-thione]
67 | Cc1[nH]c(=S)n2c1C[C@@H](c1cc(Cl)ccc1F)C2 [Example 23, (S)-6-(5-chloro-2-fluorophenyl)-1-methyl-2,5,6,7-tetrahydro-3H-pyrrolo[1,2-c]imidazole-3-thione]

The next lines start with the molecule.

SMILES | remaining activity at 0.1 µM [%]
Cc1[nH]c(=S)n2c1C[C@H](c1c(F)c(F)cc(F)c1F)C2 [Example 5, (R)-1-methyl-6-(2,3,5,6-tetrafluorophenyl)-2,5,6,7-tetrahydro-3H-pyrrolo[1,2-c]-imidazole-3-thione] | 57.3
Cc1[nH]c(=S)n2c1C[C@@H](c1c(F)c(F)cc(F)c1F)C2 [Example 6, (S)-1-methyl-6-(2,3,5,6-tetrafluorophenyl)-2,5,6,7-tetrahydro-3H-pyrrolo[1,2-c]imidazole-3-thione] | 74.1
Cc1[nH]c(=S)n2c1[C@@H]1C[C@]1(c1cc(Cl)ccc1F)C2 [Example 8, (5aS,6aR)-5a-(5-chloro-2-fluorophenyl)-1-methyl-5,5a,6,6a-tetrahydrocyclopropa[3,4]pyrrolo[1,2-c]imidazole-3(2H)-thione] | 38.3
Cc1[nH]c(=S)n2c1[C@@H]1C[C@]1(c1c(F)ccc(Cl)c1F)C2 [Example 14, (5aS,6aR)-5a-(3-chloro-2,6-difluorophenyl)-1-methyl-5,5a,6,6a-tetrahydrocyclopropa[3,4]pyrrolo[1,2-c]imidazole-3(2H)-thione] | 4.7
Cc1[nH]c(=S)n2c1C[C@H](c1c(F)ccc(Br)c1F)C2 [Example 15, (R)-6-(3-bromo-2,6-difluorophenyl)-1-methyl-2,5,6,7-tetrahydro-3H-pyrrolo[1,2-c]imidazole-3-thione] | 23.8
Cc1[nH]c(=S)n2c1C[C@@H](c1c(F)ccc(Br)c1F)C2 [Example 16, (S)-6-(3-bromo-2,6-difluorophenyl)-1-methyl-2,5,6,7-tetrahydro-3H-pyrrolo[1,2-c]imidazole-3-thione] | 12.1
Cc1[nH]c(=S)n2c1[C@@H]1C[C@]1(c1cc(F)cc(Cl)c1)C2 [Example 17, (5aS,6aR)-5a-(3-chloro-5-fluorophenyl)-1-methyl-5,5a,6,6a-tetrahydrocyclopropa[3,4]pyrrolo[1,2-c]imidazole-3(2H)-thione] | 49.9
[2H]C([2H])([2H])c1[nH]c(=S)n2c1[C@@H]1C[C@]1(c1cc(Br)ccc1F)C2 [Example 18, (5aS,6aR)-5a-(5-bromo-2-fluorophenyl)-1-(methyl-d3)-5,5a,6,6a-tetrahydrocyclopropa[3,4]pyrrolo[1,2-c]imidazole-3(2H)-thione] | 10

Same assay, conditions: read-out: DβH activity in % of Ctrl (0.1 μM), human plasma assay

SMILES | remaining activity at 0.1 µM [%]
Cc1[nH]c(=S)n2c1[C@@H]1C[C@]1(c1cc(Br)ccc1F)C2 [Example 13, (5aS,6aR)-5a-(5-bromo-2-fluorophenyl)-1-methyl-5,5a,6,6a-tetrahydrocyclopropa[3,4]pyrrolo[1,2-c]imidazole-3(2H)-thione] | 9.8
